The structures appear in SMILES notation. Where only a bound is given, the exact number is not on record here.

The target of the experiment is Protein cereblon/Androgen receptor (Homo sapiens) (UniProt P10275+Q96SW2). The experiment can be described thus: In vivo protac activity at CRBN/AR in human VCaP cells xenografted in CB17 mouse assessed as increase in Androgen receptor degradation at 10 mg/kg, po for 16 hrs by ELISA. Format: functional, organism-based.
Protein cereblon/Androgen receptor (Homo sapiens), sequence (P10275 whole entry, looked up): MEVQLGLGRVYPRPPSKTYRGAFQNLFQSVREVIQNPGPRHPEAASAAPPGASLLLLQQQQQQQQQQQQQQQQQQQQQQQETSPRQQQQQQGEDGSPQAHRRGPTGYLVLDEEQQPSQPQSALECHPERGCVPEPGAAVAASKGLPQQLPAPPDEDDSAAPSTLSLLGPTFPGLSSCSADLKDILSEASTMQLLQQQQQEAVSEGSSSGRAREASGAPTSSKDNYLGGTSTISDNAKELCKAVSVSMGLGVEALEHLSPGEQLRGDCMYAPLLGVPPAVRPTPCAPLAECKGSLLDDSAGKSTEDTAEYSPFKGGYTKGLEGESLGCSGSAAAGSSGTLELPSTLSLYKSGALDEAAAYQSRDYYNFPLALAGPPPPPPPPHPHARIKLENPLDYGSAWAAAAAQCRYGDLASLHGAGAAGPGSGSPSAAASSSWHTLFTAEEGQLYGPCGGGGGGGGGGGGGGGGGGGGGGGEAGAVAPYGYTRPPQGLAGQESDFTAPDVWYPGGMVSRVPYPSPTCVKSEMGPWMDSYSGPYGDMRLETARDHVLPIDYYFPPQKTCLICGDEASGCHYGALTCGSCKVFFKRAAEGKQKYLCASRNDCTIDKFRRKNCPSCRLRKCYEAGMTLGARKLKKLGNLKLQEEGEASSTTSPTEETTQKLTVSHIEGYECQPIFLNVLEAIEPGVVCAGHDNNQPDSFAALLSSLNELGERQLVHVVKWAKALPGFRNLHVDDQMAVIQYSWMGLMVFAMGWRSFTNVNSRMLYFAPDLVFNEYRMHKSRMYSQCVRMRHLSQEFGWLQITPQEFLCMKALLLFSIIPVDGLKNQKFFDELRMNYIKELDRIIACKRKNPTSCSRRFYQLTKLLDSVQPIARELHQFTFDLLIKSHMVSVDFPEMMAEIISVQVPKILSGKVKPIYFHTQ
Protein cereblon/Androgen receptor (Homo sapiens), sequence (Q96SW2 whole entry, looked up): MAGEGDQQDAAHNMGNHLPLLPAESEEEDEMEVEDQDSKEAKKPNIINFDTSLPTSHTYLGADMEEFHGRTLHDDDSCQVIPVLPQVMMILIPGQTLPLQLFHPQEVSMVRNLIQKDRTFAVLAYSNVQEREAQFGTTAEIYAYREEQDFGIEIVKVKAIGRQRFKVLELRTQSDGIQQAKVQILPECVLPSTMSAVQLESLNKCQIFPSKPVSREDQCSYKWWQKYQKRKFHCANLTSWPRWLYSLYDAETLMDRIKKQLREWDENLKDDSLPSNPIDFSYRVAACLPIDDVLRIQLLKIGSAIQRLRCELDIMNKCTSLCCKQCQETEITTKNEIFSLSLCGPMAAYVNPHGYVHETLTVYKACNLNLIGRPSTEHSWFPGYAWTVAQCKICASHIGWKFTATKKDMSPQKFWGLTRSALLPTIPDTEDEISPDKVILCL
Consider `CC1(C)[C@H](NC(=O)c2ccc(N3CCC(CN4CCN(c5ccc6c(c5)C(=O)N(C5CCC(=O)NC5=O)C6=O)CC4)CC3)nc2)C(C)(C)[C@H]1Oc1ccc(C#N)c(Cl)c1` (stereo not given in full), for which the Activity is less than 1%. To `CC1(C)[C@H](NC(=O)c2cnc(N3CCC(CN4CCN(c5ccc6c(c5)C(=O)N(C5CCC(=O)NC5=O)C6=O)CC4)CC3)nc2)C(C)(C)[C@H]1Oc1ccc(C#N)c(Cl)c1` (stereo not given in full) belongs less than 1%. To `CC1(C)[C@H](NC(=O)c2cnc(N3CCN(CCCCCOc4ccc5c(c4)C(=O)N(C4CCC(=O)NC4=O)C5=O)CC3)nc2)C(C)(C)[C@H]1Oc1ccc(C#N)c(Cl)c1` (stereo not given in full) belongs less than 1%; to `CC1(C)[C@H](NC(=O)c2ccc(N3CCN(CC4CN(c5ccc6c(c5)C(=O)N(C5CCC(=O)NC5=O)C6=O)C4)CC3)cc2)C(C)(C)[C@H]1Oc1ccc(C#N)c(Cl)c1` (stereo not given in full), less than 1%. The same measure for `CC1(C)[C@H](NC(=O)c2ncc(N3CCN(CCCCCOc4ccc5c(c4)C(=O)N(C4CCC(=O)NC4=O)C5=O)CC3)cn2)C(C)(C)[C@H]1Oc1ccc(C#N)c(Cl)c1` (stereo not given in full): 1%; for `CC1(C)[C@H](NC(=O)c2ccc(N3CCN(CCCOc4ccc5c(c4)C(=O)N(C4CCC(=O)NC4=O)C5=O)CC3)cc2)C(C)(C)[C@H]1Oc1ccc(C#N)c(Cl)c1` (stereo not given in full): less than 1%; for `CC1(C)[C@H](NC(=O)c2ccc(N3CCN(CC4CCN(c5ccc6c(c5)C(=O)N(C5CCC(=O)NC5=O)C6=O)CC4)CC3)cc2)C(C)(C)[C@H]1Oc1ccc(C#N)c(Cl)c1` (stereo not given in full): 1%. As to `CC1(C)[C@H](NC(=O)c2ccc(CCCCN3CCN(c4ccc5c(c4)C(=O)N(C4CCC(=O)NC4=O)C5=O)CC3)nc2)C(C)(C)[C@H]1Oc1ccc(C#N)c(Cl)c1` (stereo not given in full), the Activity was 10%.

On to `CC1(C)[C@H](NC(=O)c2ccc(N3CCN(CCCCCOc4ccc5c(c4)C(=O)N(C4CCC(=O)NC4=O)C5=O)CC3)nc2)C(C)(C)[C@H]1Oc1ccc(C#N)c(Cl)c1` (stereo not given in full), for which the Activity was less than 1%. To `CC1(C)[C@H](NC(=O)c2ccc(C3CCC(CN4CCN(c5ccc6c(c5)C(=O)N(C5CCC(=O)NC5=O)C6=O)CC4)CC3)cc2)C(C)(C)[C@H]1Oc1ccc(C#N)c(Cl)c1` (stereo not given in full) belongs 1%.

The record behind these values is ChEMBL document CHEMBL5126653, “Targeted Degradation of Androgen Receptor for the Potential Treatment of Prostate Cancer” (ACS Med Chem Lett, 2022).
